Measured values taken from the NIST ThermoML archive (doi:10.1016/j.jct.2005.07.009).

Legend:
[1] = excess molar enthalpy (molar enthalpy of mixing); xn = mol fraction of the nth substance listed; conditions: 298.15 K, 101 kPa, Liquid
[2] = xn = mol fraction of the nth substance listed; conditions: 298.15 K, 101 kPa, Liquid, Vibrating tube method

BrCCCCCCBr [1,6-dibromohexane] + CCCCC(=O)OCC
Conditions | excess molar enthalpy [kcal/mol] | mass density [kg/m3]
[1], x2 = 0.0622 | 0.00727 | –
[1], x2 = 0.1322 | 0.011 | –
[1], x2 = 0.2027 | 0.0138 | –
[1], x2 = 0.2702 | 0.015 | –
[1], x2 = 0.3359 | 0.0146 | –
[1], x2 = 0.3944 | 0.0124 | –
[1], x2 = 0.4464 | 0.00935 | –
[1], x2 = 0.4901 | 0.00566 | –
[1], x2 = 0.5274 | 0.00182 | –
[1], x2 = 0.5624 | -0.00213 | –
[1], x2 = 0.6245 | -0.00614 | –
[1], x2 = 0.6853 | -0.00767 | –
[1], x2 = 0.7481 | -0.00784 | –
[1], x2 = 0.8143 | -0.00715 | –
[1], x2 = 0.8791 | -0.00547 | –
[1], x2 = 0.947 | -0.00327 | –
[2], x2 = 0.0648 | – | 1555.13
[2], x2 = 0.1774 | – | 1474.02
[2], x2 = 0.2329 | – | 1433.91
[2], x2 = 0.2964 | – | 1387.86
[2], x2 = 0.4137 | – | 1302.47
[2], x2 = 0.5312 | – | 1216.59
[2], x2 = 0.5868 | – | 1175.74
[2], x2 = 0.6906 | – | 1099.24
[2], x2 = 0.7612 | – | 1047.08
[2], x2 = 0.819 | – | 1004.24
[2], x2 = 0.8814 | – | 957.89
[2], x2 = 0.934 | – | 918.67

BrCCCCCCBr [1,6-dibromohexane] + CCOC(=O)CC
Conditions | excess molar enthalpy [kcal/mol] | mass density [kg/m3]
[1], x2 = 0.0655 | 0.0105 | –
[1], x2 = 0.1421 | 0.0184 | –
[1], x2 = 0.2176 | 0.0235 | –
[1], x2 = 0.2889 | 0.0262 | –
[1], x2 = 0.3565 | 0.0268 | –
[1], x2 = 0.4183 | 0.0255 | –
[1], x2 = 0.4746 | 0.0226 | –
[1], x2 = 0.5242 | 0.0188 | –
[1], x2 = 0.5687 | 0.0148 | –
[1], x2 = 0.5968 | 0.0125 | –
[1], x2 = 0.6497 | 0.00894 | –
[1], x2 = 0.7061 | 0.00605 | –
[1], x2 = 0.7663 | 0.0043 | –
[1], x2 = 0.8256 | 0.00308 | –
[1], x2 = 0.8846 | 0.00189 | –
[1], x2 = 0.9439 | 0.000693 | –
[2], x2 = 0.0785 | – | 1558.6
[2], x2 = 0.1542 | – | 1515.02
[2], x2 = 0.223 | – | 1474.07
[2], x2 = 0.2897 | – | 1432.85
[2], x2 = 0.3566 | – | 1390.07
[2], x2 = 0.4169 | – | 1350.15
[2], x2 = 0.5364 | – | 1266.98
[2], x2 = 0.595 | – | 1224.16
[2], x2 = 0.6523 | – | 1181.7
[2], x2 = 0.7055 | – | 1139.41
[2], x2 = 0.7573 | – | 1097.77
[2], x2 = 0.8052 | – | 1058.09
[2], x2 = 0.8583 | – | 1012.69
[2], x2 = 0.9041 | – | 972.41

BrCCCCCCBr [1,6-dibromohexane] + CCOC(C)=O
Conditions | excess molar enthalpy [kcal/mol] | mass density [kg/m3]
[1], x2 = 0.0852 | 0.0323 | –
[1], x2 = 0.179 | 0.0516 | –
[1], x2 = 0.2657 | 0.0644 | –
[1], x2 = 0.3506 | 0.0739 | –
[1], x2 = 0.4238 | 0.0791 | –
[1], x2 = 0.489 | 0.0806 | –
[1], x2 = 0.5186 | 0.0798 | –
[1], x2 = 0.5344 | 0.0792 | –
[1], x2 = 0.5598 | 0.078 | –
[1], x2 = 0.6031 | 0.0735 | –
[1], x2 = 0.6495 | 0.0677 | –
[1], x2 = 0.7011 | 0.0608 | –
[1], x2 = 0.7507 | 0.0522 | –
[1], x2 = 0.8025 | 0.0431 | –
[1], x2 = 0.8542 | 0.033 | –
[1], x2 = 0.9062 | 0.0221 | –
[1], x2 = 0.9578 | 0.0106 | –
[2], x2 = 0.1101 | – | 1558.02
[2], x2 = 0.2056 | – | 1515.22
[2], x2 = 0.2841 | – | 1476.78
[2], x2 = 0.3679 | – | 1432.01
[2], x2 = 0.4348 | – | 1393.28
[2], x2 = 0.5035 | – | 1350.27
[2], x2 = 0.623 | – | 1266.72
[2], x2 = 0.733 | – | 1177.88
[2], x2 = 0.8165 | – | 1101.03
[2], x2 = 0.8582 | – | 1059.17
[2], x2 = 0.8988 | – | 1015.65
[2], x2 = 0.9703 | – | 932.2

BrCCCCCCBr [1,6-dibromohexane] + CCOC=O
Conditions | excess molar enthalpy [kcal/mol] | mass density [kg/m3]
[1], x2 = 0.1027 | 0.00447 | –
[1], x2 = 0.2124 | 0.127 | –
[1], x2 = 0.3116 | 0.161 | –
[1], x2 = 0.4024 | 0.181 | –
[1], x2 = 0.4766 | 0.19 | –
[1], x2 = 0.547 | 0.19 | –
[1], x2 = 0.6032 | 0.183 | –
[1], x2 = 0.6673 | 0.169 | –
[1], x2 = 0.7137 | 0.154 | –
[1], x2 = 0.7608 | 0.136 | –
[1], x2 = 0.8062 | 0.112 | –
[1], x2 = 0.852 | 0.0893 | –
[1], x2 = 0.8953 | 0.0643 | –
[1], x2 = 0.9357 | 0.0394 | –
[1], x2 = 0.9691 | 0.0193 | –
[2], x2 = 0.1144 | – | 1557.48
[2], x2 = 0.2023 | – | 1519.96
[2], x2 = 0.2923 | – | 1477.74
[2], x2 = 0.3593 | – | 1443.52
[2], x2 = 0.5084 | – | 1357.33
[2], x2 = 0.571 | – | 1316.38
[2], x2 = 0.6288 | – | 1275.6
[2], x2 = 0.6788 | – | 1237.72
[2], x2 = 0.7728 | – | 1159.02
[2], x2 = 0.8233 | – | 1112.18
[2], x2 = 0.8545 | – | 1081.46
[2], x2 = 0.9003 | – | 1033.41

CCCCC(=O)OCC [ethyl pentanoate] + BrCCBr
Conditions | excess molar enthalpy [kcal/mol] | mass density [kg/m3]
[1], x1 = 0.0286 | 0.00476 | –
[1], x1 = 0.0632 | 0.0075 | –
[1], x1 = 0.103 | 0.00966 | –
[1], x1 = 0.1465 | 0.0103 | –
[1], x1 = 0.1918 | 0.0102 | –
[1], x1 = 0.2375 | 0.00848 | –
[1], x1 = 0.2837 | 0.00418 | –
[1], x1 = 0.3283 | -0.00098 | –
[1], x1 = 0.3711 | -0.00485 | –
[1], x1 = 0.4026 | -0.00825 | –
[1], x1 = 0.4465 | -0.0112 | –
[1], x1 = 0.4938 | -0.0142 | –
[1], x1 = 0.5538 | -0.0165 | –
[1], x1 = 0.6297 | -0.0178 | –
[1], x1 = 0.7132 | -0.0175 | –
[1], x1 = 0.8085 | -0.0143 | –
[1], x1 = 0.9099 | -0.00844 | –
[2], x1 = 0.0379 | – | 2085.1
[2], x1 = 0.0766 | – | 2004.73
[2], x1 = 0.1567 | – | 1851.43
[2], x1 = 0.1993 | – | 1776.2
[2], x1 = 0.2427 | – | 1703.76
[2], x1 = 0.2945 | – | 1622.25
[2], x1 = 0.3695 | – | 1512.8
[2], x1 = 0.5222 | – | 1317.39
[2], x1 = 0.6601 | – | 1166.3
[2], x1 = 0.7313 | – | 1096.12
[2], x1 = 0.8119 | – | 1022.28
[2], x1 = 0.9074 | – | 941.5
